Measured values: PubChem BioAssay AID330 (DTP/NCI, 2004)
Toxic doses and inconclusive results are not listed. Rule for the calls: active = survival T/C of 150% or more; inactive = T/C below 125% in these data.

Test system: P388 leukemia ip, CD2F1 mice, survival T/C
Assay: NCI In Vivo Anticancer Drug Screen. Data for tumor model P388 Leukemia (intraperitoneal) in CD2F1 (CDF1) mice
Settings: endpoint: median survival time, schedule: Q01DX005 (ip), higher = longer survival
Outline: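 Mice carrying the transplanted tumor received test compound or vehicle. Survival was recorded in each group, and the value is the treated-group measurement divided by that of the vehicle-treated control group.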

Measured: T/C

O=C1c2ccccc2C(=O)N1/N=N/N1C(=O)c2ccccc2C1=O
inactive: dose: 25.0 mg/kg/injection, vehicle: Klucel (hydroxypropylcellulose) (HPC) 99 % of control | dose: 50.0 mg/kg/injection, vehicle: Klucel (hydroxypropylcellulose) (HPC) 102 % of control | dose: 100.0 mg/kg/injection, vehicle: Klucel (hydroxypropylcellulose) (HPC) 110 % of control | dose: 200.0 mg/kg/injection, vehicle: Klucel (hydroxypropylcellulose) (HPC) 106 % of control

COc1ccc(/C=N/NC(=O)COCC(=O)N/N=C/c2ccc(OC)cc2)cc1
inactive: dose: 50.0 mg/kg/injection, vehicle: saline with Tween-80 100 % of control | dose: 100.0 mg/kg/injection, vehicle: saline with Tween-80 88 % of control | dose: 200.0 mg/kg/injection, vehicle: saline with Tween-80 91 % of control

COc1cc(Cc2n[nH]c(=S)n2-c2ccccc2)c(S(N)(=O)=O)cc1OC
inactive: dose: 60.0 mg/kg/injection, vehicle: saline with Tween-80 102 % of control | dose: 120.0 mg/kg/injection, vehicle: saline with Tween-80 95 % of control | dose: 240.0 mg/kg/injection, vehicle: saline with Tween-80 94 % of control

CC1=CC(OC2CCCCC2)OC1=O (stereo not drawn)
inactive: dose: 47.5 mg/kg/injection, vehicle: Klucel (hydroxypropylcellulose) (HPC) 104 % of control | dose: 95.0 mg/kg/injection, vehicle: Klucel (hydroxypropylcellulose) (HPC) 101 % of control | dose: 190.0 mg/kg/injection, vehicle: Klucel (hydroxypropylcellulose) (HPC) 104 % of control
